What all share (assay): growth of human tumour cells (NCI), 48 h
Experiment [1] relates to SF-539 CNS.
Experiment [2] has as its system HOP-92 NSCLC.
The test system of experiment [3] is OVCAR-5 ovarian.
The subject of experiment [4] is KM12 colon.
In experiment [5] the test system is RPMI-8226 leukemia.
Experiment [6] has as its system HS 578T breast.
In experiment [7] the test system is DU-145 prostate.
The test system of experiment [8] is SF-295 CNS.
Experiment [9] concerns NCI-H460 lung.
The test system of experiment [10] is OVCAR-3 ovarian.

“And” between values parts separate entries of the source, which are not always exact repeats. Equal values may be shown once.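 In this assay, cells in 96-well plates receive the compound at five concentrations for 48 hours. Endpoints are linearly interpolated between the surrounding concentrations. The concentration for 50% growth inhibition is given as GI50. TGI denotes the concentration required for complete inhibition of growth.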

As for `CC(C)[NH-].CC(C)[NH-].O.O.[Cl][Pt+2][Cl]`, the GI50 in [1] is 47.3 µM; in [2] it was 22.3 µM; in experiment [3], 51.1 µM; in experiment [4], 96.1 µM; in [5] it was 38.1 µM; in experiment [6] it was 98.8 µM. In addition, the GI50 was 38.7 µM in experiment [7], 42.9 µM in experiment [8], 8.8 µM in experiment [9] and 21.1 µM in [10]. Moreover, the TGI came out at 160 µM in [1]; 70.8 µM in experiment [2]; 145 µM in experiment [3]; 251 µM in experiment [4]; 281 µM in experiment [5]; 594 µM in experiment [6]. For the same compound, the TGI in experiment [7] came out at 332 µM; in [8] it was 149 µM; in experiment [9], 62.3 µM; in experiment [10] it was 59.1 µM.

On to `O=C(NCCCCCCNC(=O)n1cc(F)c(=O)[nH]c1=O)NCCCOCCOCCOCCOCCOCCOCCOCCOCCOCCOCCOCCOCCOCCOCCOCCOCCOCCOCCOCCOCCOCCCNC(=O)C(O)C(O)C(OC1OC(CO)C(O)C(O)C1O)C(O)CO` (stereo not drawn), for which the TGI is 22.7 µM in [1]; above 100 µM in [2]; above 100 µM in experiment [3]; above 100 µM in [4]; above 100 µM in experiment [5]; above 100 µM in experiment [6]. In addition, the TGI in experiment [7], in experiment [8], in experiment [9] and in [10] was above 100 µM in each case.

For the compound `Cc1ccc(C(=O)N2CCN(C(=O)c3ccc(C)cc3)c3ccccc32)cc1`, the TGI in experiment [1] was 11.9 µM; in experiment [2], above 61.2 µM; in experiment [3], above 100 µM; in [4], above 100 µM; in experiment [5], above 58.2 µM; in experiment [6], 29.8 µM. Besides, the TGI was above 100 µM in [7], above 43.1 µM in experiment [8], above 100 µM in experiment [9] and 10.6 µM in [10].

For `CCOC(=O)NC1=C(N2CC2)C(=O)C(NC(=O)OCC)=C(N2CC2)C1=O`, the GI50 in experiment [1] was 1.57 µM; in experiment [2], 6.18 µM; in experiment [3], 19.9 µM and 7.01 µM; in [4], 16.7 µM; in experiment [5], 9.3 µM; in [8], 1.86 µM. In addition, the GI50 in experiment [9] was 0.505 µM and 0.721 µM; in experiment [10] it was 5.91 µM and 5.8 µM. Further, the TGI in experiment [1] is 9.51 µM and 9.15 µM and 27.5 µM; in experiment [2], 16.1 µM and 11.2 µM and 10.1 µM; in [3] it was 25 µM and 32.6 µM and 35.9 µM; in experiment [4], 25 µM and 35.3 µM; in experiment [5] it was 19 µM and 20.2 µM and 10.6 µM; in [6], 24.7 µM. Further, the TGI in [7] was 25 µM; in experiment [8], 25 µM and 23.3 µM and 31.4 µM; in experiment [9] it was 20 µM and 16.2 µM and 31 µM; in experiment [10] it was 17.4 µM and 12.9 µM and 16.1 µM.

For the compound `CN1C(=O)C(=Cc2cn(Cc3ccccc3)c3ccccc23)C(=O)N(C)C1=O`, the GI50 in experiment [1] is 47.3 µM; in experiment [2], 14.7 µM; in experiment [3] it was 0.234 µM; in experiment [4], 52.4 µM; in [5] it was 26.9 µM; in experiment [6], 17.8 µM. Moreover, the GI50 in [7] was 87.2 µM; in [8] it was 0.732 µM; in [9], 1.24 µM; in experiment [10], 20.8 µM. Besides, the TGI in experiment [1] was above 100 µM; in experiment [2] it was above 70.9 µM; in experiment [3], 0.82 µM; in [4], above 100 µM; in experiment [5], above 100 µM; in experiment [6], above 81.5 µM. The TGI in experiment [7], in [8], in [9] and in experiment [10] was above 100 µM each time.

With `COc1ccc([I+]c2ccccc2)cc1`, the GI50 in experiment [1] is 6.77 µM; in experiment [2] it was 6.55 µM; in [3], above 100 µM; in [4] it was 4.27 µM; in experiment [5] it was 2.04 µM; in experiment [6] it was 15.9 µM. For the same compound, the GI50 in experiment [7] is 23 µM; in [8] it was 7.17 µM; in [9], 5.17 µM; in [10], 8.86 µM. For the same compound, the TGI in [1] was above 100 µM; in experiment [2] it was 81.9 µM; in [3], above 100 µM; in experiment [4], above 100 µM; in experiment [5], above 78.1 µM; in experiment [6], above 100 µM. In addition, the TGI in [7] is above 100 µM; in experiment [8] it was 78.2 µM; in [9] it was above 100 µM; in [10] it was above 100 µM.

On to `N#C/C(=C\Nc1ccccn1)C(=O)c1ccco1`, for which the TGI in [1], in experiment [2], in experiment [3], in [4], in experiment [5] and in experiment [6] was above 100 µM each time. Besides, the TGI in [7], in experiment [8], in [9] and in experiment [10] was above 100 µM in each case.

Consider `O=C(NCCN1CCC(O)CC1)c1cc2c(o1)C(=O)c1ccccc1C2=O`, for which the GI50 is 0.211 µM in [1]; 1.48 µM in [2]; 0.212 µM in experiment [3]; 0.481 µM in experiment [4]; 1.58 µM in experiment [5]; 0.322 µM in [6]. Further, the GI50 was 0.179 µM in experiment [7], 0.149 µM in [8], 0.192 µM in [9] and 0.242 µM in [10]. Also, the TGI in experiment [1] worked out at 0.471 µM; in experiment [2] it was 3.19 µM; in experiment [3] it was 0.384 µM; in experiment [4], 1.87 µM; in experiment [5], 4.72 µM; in experiment [6], 0.919 µM. In addition, the TGI in [7] is 0.325 µM; in experiment [8], 0.288 µM; in experiment [9], 0.39 µM; in experiment [10], 0.658 µM.

In the case of `Oc1ccc2ccccc2c1C1NN=C(c2ccccc2)S1` (stereo not drawn), the GI50 in experiment [1] was 0.361 µM; in experiment [2] it was 0.244 µM; in experiment [3], 1.95 µM; in experiment [4] it was 0.409 µM; in experiment [5] it was 0.237 µM; in experiment [6], 2.41 µM. Besides, the GI50 is 0.479 µM in experiment [7], 0.475 µM in experiment [8], 0.34 µM in experiment [9] and 0.443 µM in experiment [10]. In addition, the TGI in experiment [1] is 16 µM; in experiment [2], 12.2 µM; in experiment [3], above 77.5 µM; in [4], 32.9 µM; in experiment [5] it was above 100 µM; in [6], 44.4 µM. Also, the TGI in experiment [7] was 37.2 µM; in experiment [8] it was 62.2 µM; in [9] it was 11 µM; in experiment [10] it was 11.8 µM.

The record behind these values is PubChem BioAssay (NCI).
